Laboratory results reported in patent publication US20260223850A1, “SUBSTITUTED PYRROLIDONE COMPOUND, PREPARATION METHOD THEREFOR, COMPOSITION AND APPLICATION THEREOF” (QINGDAO KINGAGROOT CHEMICAL COMPOUND CO., LTD., priority 2023, published 2026).

Tests used:
Assay in all cases: Seedling stage sealing experiment for water-seeding
Type in all cases: in vivo
[1] = tested on: Echinochloa crusgalli; settings: 120 g a.i./ha, seedling stage sealing, 15 days, fresh weight control rate
[2] = tested on: Echinochloa phyllopogon; settings: 120 g a.i./ha, seedling stage sealing, 15 days, fresh weight control rate
Procedure, shortened: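 Grades run from 0 (no effect) to 9 (completely dead), each band set by percent fresh-weight growth control. Application by spray tower at 120, 60, 30 and 15 g a.i./ha in triplicate; evaluated after 15 days of greenhouse culture.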

[3] = tested on: Leptochloa chinensis; settings: 120 g a.i./ha, 15 days, fresh weight control rate
From the text: (1) Seedling Stage Sealing Experiment for Water-Seeding:
The activity level criteria for plant damage (i.e., growth control rate) are as follows: • Level 9: completely dead; • Level 8: growth control rate greater than or equal to 90% and less than 100%; • Level 7: growth control rate greater than or equal to 80% and less than 90%; • Level 6: growth control rate greater than or equal to 70% and less than 80%; • Level 5: growth control rate greater than or equal to 50% and less than 70%; • Level 4: growth control rate greater than or equal to 30% and less than 50%; • Level 3: growth control rate greater than or equal to 20% and less than 30%; • Level 2: growth control rate greater than or equal to 10% and less than 20%; • Level 1: growth control rate less than 10%; • Level 0: no effect.
The above growth control rates are fresh weight control rates.
Echinochloa phyllopogon, Digitaria sanguinalis, Huaidao (rice cultivar), etc. were broadcasted on the surface of nutrition bowls filled with soil and fully covered by soil. The foregoing well-prepared nutrition bowls were then placed in a cultivation box with water filled to a suitable height to keep the soil in the nutrition bowls moist. A test compound of the present invention was individually dissolved with acetone, then diluted into solution of a certain concentration using a certain amount of water, and sprayed using a spray tower. The plants were placed on a greenhouse seedbed and cultured for 15 days, and the experimental results were then collected. The compound was applied at 120, 60, 30 and 15 g a.i./ha in triplicate, and the results were averaged.

SMILES	Echinochloa crusgalli activity level (growth control rate) [1]	Echinochloa phyllopogon activity level (growth control rate) [2]	Leptochloa chinensis activity level (growth control rate) [3]
CN1C[C@H](c2cccc(C(F)(F)F)c2)[C@@H](C(=O)Nc2c(O)nn(C)c2F)C1=O [212′]	9	9	9
COc1cccc([C@H]2CN(C)C(=O)[C@@H]2C(=O)Nc2cnn(C)c2C2CC2)c1 [217′]	9	6 (Level 6: growth control rate greater than or equal to 70% and less than 80%)	6 (Level 6: growth control rate greater than or equal to 70% and less than 80%)
CN1C[C@H](c2cccc(OC(F)(F)F)c2)[C@@H](C(=O)Nc2c(O)nn(C)c2F)C1=O [229′]	9	9	9
CN1C[C@H](c2cccc(OC(F)(F)C(F)F)c2)[C@@H](C(=O)Nc2cnn(C)c2Cl)C1=O [231′]	9	6 (Level 6: growth control rate greater than or equal to 70% and less than 80%)	9
CN1C[C@H](c2cc(F)cc(F)c2)[C@@H](C(=O)Nc2c(O)nn(C)c2F)C1=O [263′]	9	8 (Level 8: growth control rate greater than or equal to 90% and less than 100%)	9
Cc1cc(Br)cc([C@H]2CN(C)C(=O)[C@@H]2C(=O)Nc2cnn(C)c2Cl)c1 [265′]	9	9	9
Cc1cc(C)cc([C@H]2CN(C)C(=O)[C@@H]2C(=O)Nc2cnn(C(F)F)c2Cl)c1 [269′]	9	9	9
C=Cc1c(NC(=O)[C@H]2C(=O)N(C)C[C@@H]2c2cc(C)cc(C)c2)cnn1C [275′]	9	9	9
CN1C[C@H](c2cc(F)cc(C(F)(F)F)c2)[C@@H](C(=O)Nc2cnn(C3CC3)c2Cl)C1=O [290′]	9	8 (Level 8: growth control rate greater than or equal to 90% and less than 100%)	9
CC(C)n1ncc(NC(=O)[C@H]2C(=O)N(C)C[C@@H]2c2cc(F)cc(C(F)(F)F)c2)c1Cl [291′]	9	9	9
CN1C[C@H](c2cc(F)cc(C(F)(F)F)c2)[C@@H](C(=O)Nc2cnn(C)c2C2CC2)C1=O [293′]	9	9	9
COc1cc(Cl)cc([C@H]2CN(C)C(=O)[C@@H]2C(=O)Nc2cnn(C)c2Cl)c1 [297′]	9	6 (Level 6: growth control rate greater than or equal to 70% and less than 80%)	9
CCOc1cc(F)cc([C@H]2CN(C)C(=O)[C@@H]2C(=O)Nc2cnn(C)c2Cl)c1 [299′]	9	9	9
